We go through 24 molecules from ChEMBL document CHEMBL5512613, “Design and synthesis of novel 3-amino-5-phenylpyrazole derivatives as tubulin polymerization inhibitors targeting the colchicine-binding site” (Eur J Med Chem, 2024).

The test system of data set [1] is MCF7. Nature of the data set: Antiproliferative activity against human MCF7 cells assessed as inhibition of cell growth incubated for 48 hrs by MTT assay. In kind it is functional, cell-based. The note with it: MCF7, 48 h. In general terms: Tetrazolium dyes change colour on reduction, which living cells bring about.
For data set [2], the system named is A549. Nature of the data set: Antiproliferative activity against human A549 cells assessed as inhibition of cell growth incubated for 48 hrs by MTT assay. In kind it is functional, cell-based. The conditions noted are these: A549, 48 h.
The test system of data set [3] is MDA-MB-231. As to the kind of experiment: Antiproliferative activity against human MDA-MB-231 cells assessed as inhibition of cell growth incubated for 48 hrs by MTT assay. Format: functional, cell-based. The note with it: MDA-MB-231, 48 h.
Data set [4] deals with HT-29. Nature of the data set: Antiproliferative activity against human HT-29 cells assessed as inhibition of cell growth incubated for 48 hrs by MTT assay. The conditions noted are these: HT-29, 48 h. Format: functional, cell-based.
The subject of data set [5] is HeLa. As to the kind of experiment: Antiproliferative activity against human HeLa cells assessed as inhibition of cell growth incubated for 48 hrs by MTT assay. In kind it is functional, cell-based.
Data set [6] is described as follows: Cytotoxicity against human L02 cells assessed as inhibition of cell growth incubated for 48 hrs by MTT assay. Format: toxicity, cell-based.
The subject of data set [7] is MCF7. Nature of the data set: Inhibition of colony formation in human MCF7 cells at 10 nM incubated for 2 weeks in 5% CO2 at 37 degC by crystal violet staining based analysis. In kind it is functional, cell-based.
The target of data set [8] is Tubulin (Homo sapiens) (UniProt P68371+Q9H4B7+P0DPH7+P68366+Q13509+Q71U36+P04350+Q3ZCM7+P07437+P68363+Q9BQE3+Q6PEY2+Q13885+Q9BVA1+Q9BUF5). Nature of the data set: Stabilization of tubulin in human MCF7 cells assessed as stable and fascicled microtubules at 25 nM incubated for 8 hrs by DAPI staining based immunofluorescence assay. Format: cell-based.
Data set [9] relates to MCF7. Nature of the data set: Antitumor activity against human MCF7 cells xenografted in BALB/c mouse assessed as inhibition of tumor growth by measuring decrease in tumor weight at 10 mg/kg, ip administered every 3 days for 21 days. In kind it is functional. The note with it: MCF7, 504 h, time 21 day, read-out: TGI.

Active and inactive are the calls of the source. The calls are words filed in the database; no cut-off is given here.

As usually defined, the IC50 is the point on the concentration scale where inhibition reaches its midpoint. On to `COc1ccc(C(=O)n2nc(N)cc2-c2cccc(Cl)c2)cc1OC`, for which the IC50 in data set [1], in [2], in [3], in data set [4] and in data set [5] was above 5000 nM throughout. Moreover, the IC50 at 48 h in data set [6] was above 10000 nM.

As to `CC(=O)O[C@H]1C(=O)[C@@]2(C)[C@H]([C@H](OC(=O)c3ccccc3)[C@]3(O)C[C@H](OC(=O)[C@H](O)[C@@H](NC(=O)c4ccccc4)c4ccccc4)C(C)=C1C3(C)C)[C@]1(OC(C)=O)CO[C@@H]1C[C@@H]2O` [PACLITAXEL], the 50% inhibitory concentration (IC50) in data set [1] was 220 nM; in data set [3] it was 190 nM; in [4], 70 nM; in data set [5], 20 nM. Moreover, the IC50 at 48 h in data set [6] was determined as 1730 nM. For the same molecule, in [7], the inhibition result is “Active”. Moreover, in [8], the result was Active. Moreover, the inhibition in vivo at 10 mg/kg in data set [9] was found to be 73.5%.

As to `COc1ccc(/C=C\c2cc(OC)c(OC)c(OC)c2)cc1O` [COMBRETASTATIN A4], the IC50 is 280 nM in [2], 110 nM in data set [3], 380 nM in [4] and 90 nM in [5]. In addition, the IC50 at 48 h in [6] came to 3200 nM. For the same molecule, the inhibition entry in [7] is “Active”.

Regarding `COc1cc(C(=O)n2nc(N)cc2-c2cccc(Br)c2)cc(OC)c1OC`, the IC50 in data set [1] turned out to be 190 nM; in [2] it was 2180 nM; in data set [3], 540 nM; in [4] it was 280 nM; in data set [5], 440 nM. Further, in data set [6], the IC50 at 48 h is above 10000 nM.

For the molecule `COc1cc(C(=O)n2nc(N)cc2-c2cccc(F)c2)cc(OC)c1OC`, the IC50 in data set [1] was 120 nM; in data set [2], 2890 nM; in [3], 330 nM; in [4], 190 nM; in [5], 320 nM. Further, in [6], the IC50 at 48 h amounted to 4170 nM.

Turning to `COc1ccc(C(=O)n2nc(N)cc2-c2ccc(Br)cc2)cc1OC`, the IC50 in data set [1] turned out to be 180 nM; in data set [2] it was 2680 nM; in [3], 1290 nM; in data set [4], 1080 nM; in [5], 1540 nM. The IC50 at 48 h in [6] was determined as 1120 nM.

With `COc1ccc(C(=O)n2nc(N)cc2-c2ccc(OC)c(OC)c2)cc1OC`, the IC50 in data set [1], in data set [2], in data set [3], in [4] and in data set [5] was above 5000 nM throughout. Also, the IC50 at 48 h in [6] was above 10000 nM.

For `COc1ccc(-c2cc(N)nn2C(=O)c2cc(OC)c(OC)c(OC)c2)cc1OC`, the IC50 in data set [1] amounted to 170 nM; in data set [2] it was 780 nM; in data set [3], 1570 nM; in data set [4], 1770 nM; in data set [5] it was 560 nM. Moreover, the half-maximal inhibitory concentration (IC50) at 48 h in data set [6] came to 4100 nM.

Take `Nc1cc(-c2ccc(Cl)cc2)n(C(=O)c2ccc3c(c2)OCO3)n1`: the IC50 in [1] is 750 nM; in [2], 1680 nM; in data set [3] it was 3870 nM; in data set [4], above 5000 nM; in data set [5], 2790 nM. Moreover, the IC50 at 48 h in [6] is above 10000 nM.

On to `COc1cc(C(=O)n2nc(N)cc2-c2ccc(Br)cc2)cc(OC)c1OC`, for which the IC50 is 2080 nM in [1]; 2430 nM in data set [2]; 3020 nM in data set [3]; 4610 nM in [4]; 620 nM in data set [5]. Further, the IC50 at 48 h in [6] was 2680 nM.

`Cc1ccc(-c2cc(N)nn2C(=O)c2ccc3c(c2)OCO3)cc1`: the half-maximal inhibitory concentration (IC50) came to 120 nM in [1]; 2150 nM in data set [2]; 170 nM in data set [3]; 1920 nM in data set [4]; 40 nM in data set [5]. For the same molecule, the IC50 at 48 h in data set [6] was determined as 3900 nM.

As to `COc1cc(C(=O)n2nc(N)cc2-c2cccc(C)c2)cc(OC)c1OC`, the IC50 stood at 80 nM in data set [1]; 770 nM in data set [2]; 1270 nM in [3]; 1060 nM in data set [4]; 200 nM in data set [5]. For the same molecule, the IC50 at 48 h in [6] was 2810 nM.

As to `COc1cc(C(=O)n2nc(N)cc2-c2cccc(Cl)c2)cc(OC)c1OC`, the IC50 in data set [1] stood at 110 nM; in [2], 5180 nM; in data set [4], 850 nM; in data set [5], 140 nM. For the same molecule, the IC50 at 48 h in [6] came to 1640 nM.

Take `COc1ccc(C(=O)n2nc(N)cc2-c2ccc(F)cc2)cc1OC`: the half-maximal inhibitory concentration (IC50) in data set [1], in data set [2], in data set [3], in data set [4] and in [5] was above 5000 nM each time. For the same molecule, the IC50 at 48 h in [6] was above 10000 nM.

For `COc1ccc(-c2cc(N)nn2C(=O)c2ccc3c(c2)OCO3)cc1OC`, the IC50 in [1] was 1190 nM; in data set [2] it was 2770 nM; in data set [3] it was 2160 nM; in data set [4], 3570 nM; in data set [5] it was 4930 nM. Besides, the IC50 at 48 h in [6] came to 2090 nM.

For the molecule `COc1cccc(-c2cc(N)nn2C(=O)c2cc(OC)c(OC)c(OC)c2)c1`, the IC50 came out at 400 nM in data set [1]; 890 nM in data set [2]; 1290 nM in [3]; 160 nM in [4]; 2040 nM in data set [5]. Further, in data set [6], the IC50 at 48 h worked out at 5680 nM.

On to `COc1ccc(C(=O)n2nc(N)cc2-c2ccc(C)cc2)cc1OC`, for which the IC50 in data set [1] worked out at 1360 nM; in data set [2] it was 2530 nM; in data set [3], 3080 nM; in data set [4] it was 1850 nM; in data set [5] it was 4850 nM. In addition, the IC50 at 48 h in data set [6] was 5580 nM.

As for `COc1cccc(-c2cc(N)nn2C(=O)c2ccc(OC)c(OC)c2)c1`, the IC50 in data set [1] is 1200 nM; in data set [2] it was 2970 nM; in data set [3], 3090 nM; in [4], above 5000 nM; in data set [5], above 5000 nM. Further, the IC50 at 48 h in data set [6] came out at 2610 nM.

Consider `COc1cc(C(=O)n2nc(N)cc2-c2ccc(Cl)cc2)cc(OC)c1OC`, for which the IC50 came out at 2770 nM in [1]; 1360 nM in [2]; 2980 nM in data set [3]; 4350 nM in [4]; 2550 nM in [5]. Besides, in data set [6], the IC50 at 48 h turned out to be 2730 nM.

Regarding `COc1cccc(-c2cc(N)nn2C(=O)c2ccc3c(c2)OCO3)c1`, the IC50 in data set [1], in data set [2], in data set [3], in data set [4] and in [5] was above 5000 nM in each case. Also, the IC50 at 48 h in data set [6] was above 10000 nM.

With `COc1cc(C(=O)n2nc(N)cc2-c2ccc(F)cc2)cc(OC)c1OC`, the half-inhibitory concentration (IC50) is 150 nM in data set [1]; 2530 nM in data set [2]; 390 nM in data set [3]; 60 nM in [4]; 130 nM in [5]. Besides, the half-inhibitory concentration (IC50) at 48 h in [6] came to 6240 nM.

`Nc1cc(-c2ccc(F)cc2)n(C(=O)c2ccc3c(c2)OCO3)n1`: the IC50 is 4440 nM in data set [1]; 3840 nM in data set [2]; 1970 nM in [3]; above 5000 nM in data set [4]; above 5000 nM in [5]. For the same molecule, in [6], the IC50 at 48 h was 6060 nM.

Take `COc1ccc(C(=O)n2nc(N)cc2-c2ccc(Cl)cc2)cc1OC`: the IC50 is 1540 nM in data set [1]; 1780 nM in data set [2]; above 5000 nM in data set [3]; 3910 nM in data set [4]; 2860 nM in data set [5]. In addition, the IC50 at 48 h in data set [6] was found to be 4660 nM.

Consider `COc1ccc(-c2cc(N)nn2C(=O)c2cc(OC)c(OC)c(OC)c2)cc1`, for which the concentration for half-maximal inhibition (IC50) came to 310 nM in [1]; 350 nM in data set [2]; 840 nM in data set [3]; 400 nM in [4]; 650 nM in [5]. Besides, the IC50 at 48 h in data set [6] was above 10000 nM.
